Results: US20200131473A1, “METHOD OF GENERATING 2 CELL-LIKE STEM CELLS” (IFOM FONDAZIONE ISTITUTO FIRC DI ONCOLOGIA MOLECOLARE, priority 2017, published 2020)
Entries after “also recorded” stand apart in the source; their conditions may differ.

What was measured:
[1] = system: Zscan4; settings: previous work; cited from earlier work
[2] = system: 2C-like genes (Zscan4, MuERV-L/MERVL, Dux) in ESCs (E14, R1); assay: qPCR for 2C-like specific genes in ESCs; type: cell-based, mouse; settings: ESC lines E14 and R1; time and dosage-dependent
Protocol: (§1) All treatments including APH, HU, UV, ATRi, ATMi and Chk1i were added in to fresh ESC medium and the cells were kept in 37° C. and 3% 02 tension for overnight (16-17 hrs) unless mentioned in each particular result section. APH was used at various concentrations ranging from 0.3 uM to 6 uM that is mentioned in each experiment in order to induce mild to acute replication stress response. Similarly, HU was used at 0.1 mM-3 mM. ATMi (KU-55933) and ATRi (VE 822) were used at the concentration of 10 uM and 1 uM respectively. Moreover, Chk1i (UCN-01) at the concentration of 100 nM was used. UV radiation was performed at the dosage ranging from 2 to 10 J/m2. For induction of ETAA1-AAD expression, Dox was used at the concentration of 1 μg/mL for 48 hrs.
RNA was extracted using RNeasy mini kit (QIAGEN), quantified by NanoDrop spectrophotometer and cDNA was prepared from 2 μg total DNA-depleted RNA using SuperScript™ III reverse transcriptase kit (Invitrogen cat #18080-093) following manufacturer's instructions. qPCR assay performed based on standard protocol using 10× SsoFast™ EvaGreen® Supermix or later 1× LightCycler 480 SYBR Green I Master (Roche, 04707516001), 0.5 μM primer mix and 5 ng of cDNA. GAPDH was used as internal control to normalise the qPCR data following ΔΔCt method, 10 μM primer mix and a total amount of cDNA corresponding to 5 ng of starting RNA for each reaction.

[3] = system: pZscan4-Emerald ESCs; assay: FACS analysis of Zscan4-Emerald ESCs (Emerald-GFP positive cells); type: cell-based, mouse
Protocol: as §1
ESCs were fixed and permeabilized using Cytoperm/Cytofix kit (BD Biosciences), and subsequently stained for one hour at room temperature with Alexa Fluor® 647 anti-H2AX-Phosphorylated (Ser139) antibody (Biolegend) or P-CHK1-PE conjugated antibody (cell signaling 12268). Cells were washed and acquired on a FACS Calibur instrument or Attune NxT (Thermo Fisher Scientific). For Emerald-GFP acquisition, cells were trypsinized, collected and subsequently acquired without fixation. Cell cycle profiles were acquired after incubation with DAPI (4′,6-diamidino-2-phenylindole) overnight. For Caspase3 FACS analysis after fixation and permeabilization, Cleaved Caspase3 antibody were used for one hr at RT followed by washes and one hr incubation in donkey anti rabbit secondary antibody. […]

[4] = system: mESC lines E14 and R1; assay: Whole gene expression profiling (microarray) of mESC lines E14 and R1; type: cell-based, mouse; settings: APH plus inhibitor
Protocol: The quality of total RNA was first assessed using an Agilent Bioanalyzer 2100 (Agilent Technologies, Palo Alto, Calif.). Biotin-labeled cDNA targets were synthesized starting from 150 ng of total RNA. Double stranded cDNA synthesis and related cRNA was performed with GeneChip® WT Plus Kit (Affymetrix, Santa Clara, Calif.). With the same kit was synthesized the sense strand cDNA before to be fragmented and labeled. […] Each eukaryotic GeneChip® probe array contains probe sets for several B. subtilis genes that are absent in the samples analyzed (lys, phe, thr, and dap). This Poly-A RNA Control Kit contains in vitro synthesized, polyadenylated transcripts for these B. subtilis genes that are pre-mixed at staggered concentrations to allow GeneChip® probe array users to assess the overall success of the assay.
Hybridization was performed using the GeneAtlas™ Hybridization, Wash and Stain Kit. […] Targets were diluted in hybridization buffer at a concentration of 0.05 μg/ul, denatured at 99° C. for 5 minutes, incubated at 45° C. for 5 minutes and centrifuged at 5,000 rpm for 1 minute. The Array Strip is then moved to a hybridization tray, which contains the hybridization cocktails. A single Gene 2.1 PEG Array Strip is hybridized with four different biotin-labeled targets. Hybridizations were performed for 20 hours at 48° C. in the GeneAtlas™ Hybridization Station. The Array Strips were washed and stained in the GeneAtlas™ Personal Fluidics Station. At the end of this procedure the array strips were placed into the imaging tray, which contains the Array Holding buffer.
The array strips were imaged using the GeneAtlas™ Imaging Station. Affymetrix GeneAtlas™ Command Console software was used to acquire the Array Strip images and […].
The CAMERA gene set enrichment p-values were calculated using the limma package and the camera function 30.
In the GSVA based enrichment analysis, we used the MsigDB gene sets, and transformed the individual gene expression values into gene set expression values with the GSVA package 32. We calculated the gene set differential expression as in the gene level differential expression analysis, only skipping the RMA normalization step.

In the case of `COC(=O)Nc1nc2ccc(C(=O)c3cccs3)cc2[nH]1` [nocodazole], the “Zscan4 expression upon G2/M arrest” value [1] is given as “not sufficient to trigger Zscan4 expression”.

In the case of `NC(=O)NO` [HU, hydroxyurea], the “expression of Zscan4 and MuERV-L (QPCR and FACS)” value [2] is reported as “significantly upregulated” and the “number of Emerald-GFP positive (Em+) ESCs” value ([3]; RS inducing agents, dose-dependent, qPCR and FACS) is reported as “significant increase”.

For `Cn1c(=O)c2c(ncn2C)n(C)c1=O` [Caffeine], the “two placenta-related gene categories upon ATR inhibition” value [4] was “robustly suppressed”.

For `O=c1cc(-c2cccc3c2Sc2ccccc2S3)oc(N2CCOCC2)c1` [KU-55933], the “elevated expression of 2C-like specific genes (Zscan4, MERVL) upon APH and HU treatment” value ([3]; inhibitor added under replication stress, flow cytometry and immunoblot, listed as ATM inhibitor) was “could not alter” and the “number of Zscan4-Emerald positive cells” value ([3]; normal culture condition, ATRi 1 uM, ATMi 10 uM) was “did not change; also recorded: did not significantly reduce”.
